Test system: TXNRD1 (Thioredoxin reductase 1) gene
Experiment: TXNRD1 (thioredoxin reductase 1) gene expression in normal human epidermal keratinocytes (NHEK) by RT-PCR
Format: cell-based
Conditions: 24 hours, normalized to YWHAZ, relative to blank control (1.0)
Protocol: The normal human epidermal keratinocytes (NHEK, Lot: NHS-2021-006) (Archgene Biotechnology, Shanghai, China) were incubated in medium together with or without actives for 24 hours. After incubation, the total RNA for each NHEK was extracted using Qiagen Mini RNeasy kit (Qiagen, Cat. 74106) according to manufacturer's protocol.
The extracted RNA was quantified using Nanodrop 2000 spectrometer (Thermo Fisher Scientific, Waltham, MA, US) and reverse transcribed to generate the template cDNA using the ABScript III RT Mast Mix (Cat. BK20428, ABclonal) according to manufacturer's protocol. Amplification of the gene encoding the TXNRD1 (Thioredoxin reductase 1) gene was performed with RT-PCR reagent (Universal SYBR Green Fast qPCR Mix kit, Cat.: RK21203, ABclonal) on the ABI Vii 7 Real-Time PCR Systems (Applied Biosystems, Thermo fisher scientific, Carlsbad, CA, USA). The Tyrosine 3-Monooxygenase/Tryptophan 5-Monooxygenase Activation Protein Zeta gene (YWHAZ) was selected as the housekeeping gene and all data on relative expression of the target genes was normalized to YWHAZ.

Fold change for gene expression TXNRD1 (0.05 wt % of LCC in medium)	Compound	fold induction at 5 µM (Homo sapiens, 5 μM of HR in medium, read-out: Fold change for gene expression TXNRD1)
–	CCCCCCc1ccc(O)cc1O [HR, 4-hexyl resorcinol]	1
1.2	Lysine carboxymethyl cysteinate [LCC]	–
